≈ marks a conversion by molar mass, not a printed value.

The conditions of the data set: buffer; pH 7.4; 200.0 µM.
Turning to `CSc1nc(N)cc(=O)[nH]1`, the kinetic solubility was above 23.6 µg/mL.
`Cn1cnc([N+](=O)[O-])c1NCc1ccccc1` yielded a kinetic solubility of 33.5 µg/mL (≈ 144 µM).
For `COc1ccc(C(=O)NCC2CCCO2)cc1OC` (stereo not drawn), the kinetic solubility worked out at 35.7 µg/mL (≈ 135 µM).
As to `COc1ccc(NS(=O)(=O)N2CCOCC2)cc1`, the kinetic solubility was above 40.8 µg/mL.
The same measure for `CCCc1cc(=O)[nH]c(SCC(=O)NCCC2=CCCCC2)n1`: 48.2 µg/mL (≈ 144 µM); for `Cc1nc2nc(N)nc(OCc3ccccc3)c2nc1C`: 41.6 µg/mL (≈ 148 µM); for `CCCOc1ccc(C2Nc3cccc4cccc(c34)N2)cc1`: 3.8 µg/mL (≈ 12.5 µM).
`CC(=O)ONC(=Nc1ccccc1)c1nonc1N` came in with a kinetic solubility above 39.2 µg/mL.
Take `O=C1c2ccccc2C(O)(c2ccccc2)N1C1CC1` (stereo not drawn): the kinetic solubility turned out to be 38.3 µg/mL (≈ 144 µM).
Turning to `CCN(CC)c1ccc(NC(=O)Nc2cccc3ccccc23)cc1`, the solubility (kinetic) came to 0.6 µg/mL (≈ 1.8 µM).
Regarding `Cc1noc(C)c1S(=O)(=O)Nc1ccccc1N1CCOCC1`, the kinetic solubility is above 50.6 µg/mL.
`O=C(/C=C/c1cccc(Br)c1)N1CCN(c2ccccn2)CC1` showed a kinetic solubility of 4.6 µg/mL (≈ 12.4 µM).
In turn, `O=C(CSc1nc2ccccc2c(=O)n1CCCO)NC1CC1` had a kinetic solubility above 50 µg/mL.
For `Cc1cccc(C)c1OCCN1CCOCC1.O=C(O)C(=O)O`, the solubility (kinetic) was 42.1 µg/mL.
The same measure for `CC1(C)CN(C(=S)Nc2ccc(F)cc2F)C1=O`: 5.1 µg/mL (≈ 18.9 µM).
The compound `NC(=O)c1ccc(N2CCNC(=O)C2)c([N+](=O)[O-])c1` displayed a kinetic solubility above 39.6 µg/mL.
Compound `CC1CCN(C(=O)CNC(=O)Cc2ccccc2)CC1` gave a solubility (kinetic) of 40.9 µg/mL (≈ 149 µM).
`CC(=O)c1ccc(N2CCN(C(=O)c3cc4c(s3)CCCC4)CC2)cc1` showed a kinetic solubility of 10.7 µg/mL (≈ 29 µM).
Next, `Cc1occc1C(=O)Nc1ccc(OCc2ccccc2)cc1`: 2.1 µg/mL (≈ 6.83 µM).
In turn, `O=C(Nc1cccc([N+](=O)[O-])c1)N1CCCc2ccccc21` showed a kinetic solubility of 34.6 µg/mL (≈ 116 µM).
In turn, `Cl.N[C@@H]1C[C@H]1c1ccccc1` returned a solubility (kinetic) above 25.4 µg/mL.
For `CC(C)(CCO)NC(=S)NC1CC2C=CC1C2` (stereo not drawn), the kinetic solubility is above 38.2 µg/mL.
Next, `Cc1c(O)ccc2c(CN3CCOCC3)cc(=O)oc12`: above 41.3 µg/mL; `O=C1/C(=C/c2ccccn2)COc2ccccc21`: 11.3 µg/mL (≈ 47.6 µM); `CC1=CC(C)(C)NC(=O)N1c1ccc(C)cc1`: above 34.5 µg/mL.
Take `CC(=O)Nc1nc2ccccc2n1Cc1ccc(C)cc1`: the solubility (kinetic) worked out at 8.1 µg/mL (≈ 29 µM).
Next, `CCCN(Cc1cc2cc(C)ccc2[nH]c1=O)C(=O)c1ccccn1`: above 50.3 µg/mL; `CCNc1cc(N2CCN(C)CC2)ccc1[N+](=O)[O-]`: above 39.6 µg/mL; `O=C(O)c1cc(-c2cccs2)nc2ccc(Br)cc12`: above 50.1 µg/mL.
For `O=C(NCC(c1ccco1)N1CCOCC1)C1CCCCC1` (stereo not drawn), the kinetic solubility was above 46 µg/mL.
The same measure for `Cc1cccc(OC(=O)c2cccnc2)c1C`: 25 µg/mL (≈ 110 µM).
In turn, `COc1ccc(N(C(C)=O)c2nc3ccccc3[nH]2)cc1` registered a solubility (kinetic) of 38.2 µg/mL (≈ 136 µM).
`Cc1ccccc1Nc1nc(N)nc(CSc2nnc(C)n2C)n1` showed a solubility (kinetic) above 51.4 µg/mL.
Consider `COc1ccc(CCNC(=O)c2ccco2)cc1OC`, for which the kinetic solubility turned out to be 40.8 µg/mL (≈ 148 µM).
In turn, `CCOc1cccc2cc(C(=O)N3CC(C)OC(C)C3)c(=O)oc12` (stereo not drawn) displayed a kinetic solubility above 49.7 µg/mL.
Compound `CCn1c(SCc2cccc(F)c2)nc2c(c1=O)SCC2` came in with a solubility (kinetic) of 11.2 µg/mL (≈ 34.7 µM).
Consider `CC(=O)Nc1ccc(C)c(NC(=S)Nc2ccc(F)cc2)c1`, for which the kinetic solubility came to 42.6 µg/mL (≈ 134 µM).
As for `O=C(CCCNC(=O)c1ccc(Cl)cc1)NCc1ccc(F)cc1`, the kinetic solubility is 4.1 µg/mL (≈ 11.8 µM).
In turn, `COc1ccc(N2CCN(C(=O)Cn3cncn3)CC2)cc1` displayed a solubility (kinetic) above 45.2 µg/mL.
The same measure for `CCOc1ccc(CNCCc2ccc3c(c2)OCO3)cc1`: above 44.9 µg/mL; for `CC(=O)NC1=NN(C(C)=O)C(c2ccco2)S1` (stereo not drawn): above 38 µg/mL; for `CC(C(=O)NC1CCCC1)N1C(=O)c2cccc3cccc1c23` (stereo not drawn): above 46.3 µg/mL.
Compound `Br.Cn1c(=N)n(CC(=O)c2ccccc2)c2ccccc21` showed a kinetic solubility above 51.9 µg/mL.
`O=C(CNC(=O)c1ccc(F)cc1)c1ccccc1` yielded a kinetic solubility above 38.6 µg/mL.
The compound `O=C(c1cc2ccccc2s1)N1CCOCC1` returned a kinetic solubility above 37.1 µg/mL.
Next, `O=C(NCc1ccc(Cl)c(Cl)c1)C1CCCC1`: 32.6 µg/mL (≈ 120 µM); `CN1CCN(C2CC(=O)N(CCc3ccccc3)C2=O)CC1` (stereo not drawn): above 45.2 µg/mL; `Cc1ccc(F)cc1NC(=O)/C=C/c1ccc(S(=O)(=O)N2CCOCC2)cc1`: 1.8 µg/mL (≈ 4.45 µM).
Compound `Cn1ccc(C(=O)N/N=C/c2ccncc2)n1` displayed a solubility (kinetic) above 34.4 µg/mL.
The same measure for `Cc1ccc2c(c1)C1C[N+](C)(CC(=O)c3ccccc3)CCC1N2C(=O)c1ccccc1Cl.[Br-]` (stereo not drawn): 78 µg/mL.
Next, `COc1cc(OC)nc(Oc2cccc(C(F)(F)F)c2)n1`: below 0.3 µg/mL; `O=C(Nc1cccc2ccccc12)c1ccc([N+](=O)[O-])cc1`: 1 µg/mL (≈ 3.42 µM); `CC(C)N(CC(N)=O)C(=O)c1sc2cc(F)ccc2c1Cl`: 45 µg/mL (≈ 137 µM).
